Laboratory results as given in patent publication US20150104868A1, “Methods of Maintaining and Improving Biological Cell Function and Activity” (GARGILL INCORPORATED, priority 2012, published 2015).

System: CRL 1730 HUVECs
Assay: Microarray transcriptomics of HUVEC (HGERT/HG, HG/NG)
Type: cell-based, human
[1] = HUVEC, 5 mM ERT + 30 mM glucose vs 30 mM glucose
[2] = Prostate cancer, 8MP signaling pathway
[3] = Prostate cancer, Calcium/calmodulin
[4] = Prostate cancer, Carbohydrate binding
[5] = Prostate cancer, DNA binding, second listing
[6] = Prostate cancer, ILK signaling (integrin linked kinase)
[7] = Prostate cancer, Reactive oxygen species
[8] = Prostate cancer, Tyrosine phosphatase activity
[9] = Prostate cancer, Zinc ion transport

OC[C@@H](O)[C@@H](O)CO [ERT, meso-1,2,3,4-tetrahydroxybutane]
Ψ 1.06: HGERT/HG transcript SOS1 [1] | HGERT/HG SOS1 (Son of sevenless homolog 1 (Drosophila)) (Prostate cancer, DNA binding)
Ψ 1.13: HGERT/HG transcript IFI6 [1]
Ψ 1.05: HGERT/HG transcript HIP1 [1]
Ψ 1.01: HGERT/HG transcript DAP [1] | HGERT/HG transcript DBT [1] | HGERT/HG transcript ENG [1] | HGERT/HG transcript FOXC1 [1] | HGERT/HG transcript HIG2 [1] | HGERT/HG transcript HPCAL1 [1] | HGERT/HG transcript KIDINS220 [1] | HGERT/HG transcript KIF1B [1] | HGERT/HG transcript LIMK1 [1] | HGERT/HG transcript NCK2 [1] | HGERT/HG transcript NDE1 [1] | HGERT/HG transcript OTUD5 [1] | HGERT/HG transcript PDIA5 [1] | HGERT/HG transcript PITRM1 [1] | HGERT/HG transcript PRRX1 [1] | HGERT/HG transcript PXN [1] | HGERT/HG transcript RPS6KA2 [1] | HGERT/HG transcript SEC31A [1] | HGERT/HG transcript SENP3 [1] | HGERT/HG transcript SESTD1 [1] | HGERT/HG transcript SH3PXD2B [1] | HGERT/HG transcript TACC1 [1] | HGERT/HG transcript TGM2 [1] | HGERT/HG transcript TIMP2 [1] | HGERT/HG transcript TXNDC11 [1] | HGERT/HG transcript USP22 [1] | HGERT/HG transcript WDFY2 [1] | HGERT/HG BMP6 (Bone morphogenetic protein 6) [2] | HGERT/HG HPCAL1 (Hippocalcin-like 1) [3] | HGERT/HG SEC31A (SEC31 homolog A (S. cerevisiae)) [3] | HGERT/HG ADAR (Adenosine deaminase, RNA-specific) (Prostate cancer, DNA binding) | HGERT/HG ATF6 (Activating transcription factor 6) (Prostate cancer, DNA binding) | HGERT/HG DBT (Dihydrolipoamide branched chain transacylase E2) (Prostate cancer, DNA binding) | HGERT/HG FOXC1 (Forkhead box C1) (Prostate cancer, DNA binding) | HGERT/HG FOXN3 (Forkhead box N3) (Prostate cancer, DNA binding) | HGERT/HG FOXP1 (Forkhead box P1) (Prostate cancer, DNA binding) | HGERT/HG GZF1 (GDNF-inducible zinc finger protein 1) (Prostate cancer, DNA binding) | HGERT/HG PCBP1 (Poly(rC) binding protein 1) (Prostate cancer, DNA binding) | HGERT/HG POLG (Polymerase (DNA directed), gamma) (Prostate cancer, DNA binding) | HGERT/HG PRRX1 (Paired related homeobox 1) (Prostate cancer, DNA binding) | HGERT/HG PUF60 (Poly-U binding splicing factor 60KDa) (Prostate cancer, DNA binding) | HGERT/HG RYBP (RING1 and YY1 binding protein) (Prostate cancer, DNA binding) | HGERT/HG SOX4 (SRY (sex determining region Y)-box 4) (Prostate cancer, DNA binding) | HGERT/HG TCF25 (Transcription factor 25 (basic helix-loop-helix)) (Prostate cancer, DNA binding) | HGERT/HG TOX4 (TOX high mobility group box family member 4) (Prostate cancer, DNA binding) | HGERT/HG TTF1 (Transcription termination factor, RNA polyrnerase 1) (Prostate cancer, DNA binding) | HGERT/HG ZBED3 (Zinc finger, BED-type containing 3) (Prostate cancer, DNA binding) | HGERT/HG ZNF232 (Zinc finger protein 232) (Prostate cancer, DNA binding) | HGERT/HG RYBP (RING1 and YY1 binding protein) [5] | HGERT/HG TTF1 (Transcription termination factor, RNA polymerase 1) [5] | HGERT/HG JUP (Junction plakoglobin) (Prostate cancer, Endothelial cell-cell adhesion) | HGERT/HG ACTN1 (Actinin, alpha 1) [6] | HGERT/HG PXN (Paxillin) [6] | HGERT/HG JUP (Junction plakaglobin) [7] | HGERT/HG PTPLAD1 (Protein tyrosine phosphatase-like A domain containing 1) [8] | HGERT/HG SLC39A13 (Solute carrer family 39 (zinc transporter), member 13) [9]
1.00 Ω: HGERT/HG transcript IFT20 [1] | HGERT/HG transcript MAGED1 [1] | HGERT/HG transcript VIM [1] | HGERT/HG transcript YME1L1 [1] | HGERT/HG VIM (Vimentin) [6]
Ψ 1.03: HGERT/HG transcript DCAKD [1] | HGERT/HG transcript GSN [1] | HGERT/HG transcript MARK2 [1] | HGERT/HG transcript MYST4 [1] | HGERT/HG transcript PLEC1 [1] | HGERT/HG transcript SLC2A12 [1] | HGERT/HG PLEC1 (Plectin) (Prostate cancer, Actin binding) | HGERT/HG HNF1B (HNF1 homeobox B) (Prostate cancer, DNA binding) | HGERT/HG PIAS4 (Protein inhibitor of activated STAT, 4) (Prostate cancer, DNA binding) | HGERT/HG ZNF562 (Zinc finger protein 562) (Prostate cancer, DNA binding) | HGERT/HG PIAS4 (Protein inhibitor of activated STAT, 4) [5]
0.99 Ω: HGERT/HG transcript DDX54 [1] | HGERT/HG transcript DYNLT1 [1] | HGERT/HG transcript ESD [1] | HGERT/HG transcript FASTKD1 [1] | HGERT/HG transcript FASTKD3 [1] | HGERT/HG transcript HLTF [1] | HGERT/HG transcript HSPE1 [1] | HGERT/HG transcript RSU1 [1] | HGERT/HG transcript SLC25A24 [1] | HGERT/HG transcript SLK [1] | HGERT/HG transcript SMOX [1] | HGERT/HG transcript SUCLA2 [1] | HGERT/HG transcript TCEAL1 [1] | HGERT/HG transcript TCF12 [1] | HGERT/HG transcript VPS4B [1] | HGERT/HG UBE2D1 (Ubiquitin-conjugating enzyme E2D1 (U8C4/5 homolog, yeast)) [2] | HGERT/HG C6orf66 (NADH dehydrogenase (ubiquinone) 1 alpha subcomplex, assembly factor 4) [3] | HGERT/HG SLC25A24 (Solute carrier family 25 (mitochondrial carrier; phosphate carrier), member 24) [3] | HGERT/HG C10orf125 (Chromosome 10 open reading frame 125) [4] | HGERT/HG GPBP1 (GC-rich promoter binding protein 1) (Prostate cancer, DNA binding) | HGERT/HG HBP1 (HMG-box transcription factor 1) (Prostate cancer, DNA binding) | HGERT/HG KIN (KIN, antigenic determinant of recA protein homolog (mouse)) (Prostate cancer, DNA binding) | HGERT/HG RABGEF1 (RAB guanine nucleotide exchange factor (GEF) 1) (Prostate cancer, DNA binding) | HGERT/HG RNF11 (Ring finger protein 11) (Prostate cancer, DNA binding) | HGERT/HG RPA3 (Replication protein A3, 14kDa) (Prostate cancer, DNA binding) | HGERT/HG TCF12 (Transcription factor 12) (Prostate cancer, DNA binding) | HGERT/HG TRIM26 (Tripartite motif-containing 26) (Prostate cancer, DNA binding) | HGERT/HG ZNFT84 (Zinc finger protein 784) (Prostate cancer, DNA binding) | HGERT/HG pdcd6 (Aryl-hydrocarbon receptor repressor) (Prostate cancer, DNA binding) | HGERT/HG RNF11 (Ring finger protein 11) [5] | HGERT/HG RSU1 (Ras suppressor protein 1) [6] | HGERT/HG COX8A (Cytochrome c oxidase subunit VIIIA (ubiquitous)) [7] | HGERT/HG MPHOSPH6 (M-phase phosphoprotein 6) [7] | HGERT/HG SMOX (Spermine oxidase) [7] | HGERT/HG TCF12 (Transcription factor 12) [7] | HGERT/HG DUSP23 (Dual specificity phosphatase 23) [8] | HGERT/HG SLC30A6 (Solute carrer family 30 (zinc transporter), member 6) [9] | HGERT/HG SLC30A9 (Solute carrer family 30 (zinc transporter), member 9) [9]
Ψ 1.00: HGERT/HG CIB1 (Calcium and integrin binding 1 (calmyrin)) [3]
Ψ 1.02: HGERT/HG transcript FBLIM1 [1] | HGERT/HG transcript FURIN [1] | HGERT/HG transcript GJC1 [1] | HGERT/HG transcript GNAI2 [1] | HGERT/HG transcript GPR124 [1] | HGERT/HG transcript LYN [1] | HGERT/HG transcript NOTCH1 [1] | HGERT/HG transcript PDCD7 [1] | HGERT/HG transcript RHOB [1] | HGERT/HG transcript ZNF318 [1] | HGERT/HG GJC1 (Gap junction protein, gamma 1, 45kDa) [3] | HGERT/HG EXTL3 (Exostoses (multiple)-like 3) [4] | HGERT/HG GCS2 (Mannosyl-oligosaccharide glucosidase) [4] | HGERT/HG BBX (Bobby sox homolog (Drosophilia)) (Prostate cancer, DNA binding) | HGERT/HG DEAF1 (Deformed epidermal autoregulatory factor 1 (Drosophila)) (Prostate cancer, DNA binding) | HGERT/HG MXD4 (MAX dimerization protein 4) (Prostate cancer, DNA binding) | HGERT/HG POLO1 (Polymerase (DNA directed), delta 1, catalytic subunit 125kDa) (Prostate cancer, DNA binding) | HGERT/HG T8RG1 (Transforming growth factor beta regulator 1) (Prostate cancer, DNA binding) | HGERT/HG UBN1 (Ubinuclein 1) (Prostate cancer, DNA binding) | HGERT/HG FBUM1 (Gene ID 54751) [6] | HGERT/HG RHOB (Ras homolog gene family, member B) [6] | HGERT/HG RHOJ (Ras homolog gene family, member J) [6]
0.99: HGERT/HG transcript EID2 [1] | HGERT/HG transcript HADH [1] | HGERT/HG transcript HIATL1 [1] | HGERT/HG transcript LUC7L2 [1] | HGERT/HG transcript MFSOL [1] | HGERT/HG transcript NDUFA4 [1] | HGERT/HG transcript OXCT1 [1] | HGERT/HG transcript PHF16 [1] | HGERT/HG transcript PLCD4 [1] | HGERT/HG transcript PLEKHA3 [1] | HGERT/HG transcript RNF20 [1] | HGERT/HG transcript SAMM50 [1] | HGERT/HG transcript SCFD1 [1] | HGERT/HG transcript SEC61G [1] | HGERT/HG transcript SETD3 [1] | HGERT/HG transcript SLC30A6 [1] | HGERT/HG transcript SLC41A2 [1] | HGERT/HG transcript SNX3 [1] | HGERT/HG transcript SNX14 [1] | HGERT/HG transcript SUDS3 [1] | HGERT/HG transcript TIMM8B [1] | HGERT/HG transcript TMEM14C [1] | HGERT/HG transcript U8A3 [1] | HGERT/HG transcript VPS26A [1] | HGERT/HG transcript ZNF59B [1]
0.94 Ω: HGERT/HG CORO1A (Coronin, actin binding protein, 1A) (Prostate cancer, Actin binding)
0.98 Ω: HGERT/HG transcript MAP4K3 [1] | HGERT/HG transcript PAQR3 [1] | HGERT/HG transcript RP2 [1] | HGERT/HG transcript SDHD [1] | HGERT/HG transcript STK39 [1] | HGERT/HG transcript TRIT1 [1] | HGERT/HG transcript ZMYM1 [1] | HGERT/HG B4GALT4 (UDP-Gal:betaGlcNAc beta 1,4-galactosyltransferase, polypeptide 4) [4] | HGERT/HG FOXN2 (Forkhead box N2) (Prostate cancer, DNA binding) | HGERT/HG HKR1 (HKR1, GU-Kruppel zinc finger family member) (Prostate cancer, DNA binding) | HGERT/HG MRRF (Mitochondrial ribosome recycling factor) (Prostate cancer, DNA binding) | HGERT/HG POLR2K (Polymerase (RNA) II (DNA directed) polypeptide K, 7.0kDa) (Prostate cancer, DNA binding) | HGERT/HG POLR3F (Polymerase (RNA) III (DNA directed) polypeptide F, 39 kDa) (Prostate cancer, DNA binding) | HGERT/HG SARNP (SAP domain containing ribonucleoprotein) (Prostate cancer, DNA binding) | HGERT/HG ZNF83 (Zinc finger protein 83) (Prostate cancer, DNA binding) | HGERT/HG ZNF267 (Zinc finger protein 267) (Prostate cancer, DNA binding) | HGERT/HG ZNF614 (Zinc finger protein 614) (Prostate cancer, DNA binding) | HGERT/HG SDHD (Succinate dehydrogenase complex, subunit D, integral membrane protein) [7] | HGERT/HG PAQR3 (Progestin and adipoQ receptor family member III) (Prostate cancer, Receptor activity) | HGERT/HG PGRMC2 (Progesterone receptor membrane component 2) (Prostate cancer, Steroid hormone receptor activity)
0.97 Ω: HGERT/HG transcript SOAT1 [1] | HGERT/HG SOAT1 (Sterol O-acyltransferase 1) (Prostate cancer, Sterol metabolism)
Ψ 1.07: HGERT/HG transcript SAMHD1 [1]
0.96 Ω: HGERT/HG transcript PLEK2 [1] | HGERT/HG transcript SDHC [1]
0.98: HGERT/HG transcript MBIP [1] | HGERT/HG transcript MTM1 [1] | HGERT/HG transcript Magmas [1] | HGERT/HG transcript NAP8 [1] | HGERT/HG transcript SACM1L [1] | HGERT/HG transcript SFT2D2 [1] | HGERT/HG transcript SFXN4 [1] | HGERT/HG transcript SLC25A43 [1] | HGERT/HG transcript STXBP3 [1]
Ψ 1.04: HGERT/HG transcript GOLGA2 [1]
